System: HaCaT cells
Test: Normalized expression of target genes in HaCaT cells stimulated with TNFα and IFNγ in presence/absence of JAK inhibitors (QuantiGene Plex)
Type: cell-based, human
Protocol: Transformed human keratinocyte (HaCaT) cells were purchased from AddexBio (Catalog #T0020001) and cultured as outlined in Example 5. […] After 48 hours, cell culture media was removed from 24 well plates and replaced with 250 uL of media containing serial diluted drug, then incubated for 15 minutes at 37° C./5% CO2. After drug incubation, 250 uL of combinatory stimulation containing Recombinant Human Interferon gamma (R&D Systems, Catalog #285-IF-100) and Recombinant Human Tumor Necrosis Factor alpha (R&D Systems, Catalog #210-TA-020) was added to plates. The final concentration of Recombinant Human Interferon gamma and Recombinant Human Tumor Necrosis Factor alpha was 25 ng/mL of each cytokine. Cytokine stimulation added to wells containing drug brought the final concentrations for each drug treatment to 25 nM, 50 nM, 100 nM, and 200 nM. Treated plates were mixed by gentle agitation for 30 seconds then incubated for 24 hours at 37° C./5% CO2. At the end of the 24 hour incubation media was immediately removed from each plate.
RNA was isolated from HaCaT cells using the QuantiGene Plex Assay reagents and protocols (Affymetrix, Catalog #QGP-232-M18042302) according to the manufacturer's guidelines. Cells were washed with 1×DPBS then lysed by incubation with provided QuantiGene lysis buffer for 30 minutes at 50-55° C. Cell lysates were incubated for 18-24 hours at 55° C. with capture beads and probe set designed to specifically hybridize to mRNA from targets of interest. Genes included housekeeping genes (e.g., HPRT1 and GAPDH) used for the normalization of the results. After the 18-24 hour incubation signal was amplified utilizing branched DNA methodologies, according to the manufacturer's procedures (Affymetrix, Catalog #QGP-232-M18042302). After hybridization and wash steps assay plate was read on the Luminex 200 and data were expressed as Net Median Fluorescence Intensity. Data was then normalized to the Net Median Fluorescence Intensity of the housekeeping gene HPRT1 (Table 14).

[1] = TNFα+IFNγ 25 ng/mL, Drug Conc 25 nM
[2] = TNFα+IFNγ 25 ng/mL, Drug Conc 50 nM
[3] = TNFα+IFNγ 25 ng/mL, Drug Conc 100 nM
[4] = TNFα+IFNγ 25 ng/mL, Drug Conc 200 nM
[5] = no stimulation, Drug Conc 200 nM

N#CCC1(n2cc(-c3ncnc4[nH]ccc34)cn2)CN(C2CCN(C(=O)c3ccnc(C(F)(F)F)c3F)CC2)C1 [Cpd B, {1-{1-[3-fluoro-2-(trifluoromethyl)isonicotinoyl]piperidin-4-yl}-3[4-(7H-pyrrolo[2,3-d]pyrimidin-4-yl)-1H-pyrazol-1-yl]azetidin-3-yl}acetonitrile]
AREG normalized expression MFI [1]: 737.85 ± 22.1
CCL17 normalized expression MFI [1]: 3.37 ± 0.54
CCL18 normalized expression MFI [1]: 2.12 ± 0.32
FLG normalized expression MFI [1]: 71.57 ± 9.14
IL6 normalized expression MFI [1]: 130.24 ± 3.84
IL8 normalized expression MFI [1]: 381.74 ± 10.25
IL17A normalized expression MFI [1]: 0.88 ± 0.13
IL22 normalized expression MFI [1]: 1.21 ± 0.24
IL23A normalized expression MFI [1]: 43.92 ± 1.89
IL31 normalized expression MFI [1]: 1.33 ± 0.33
ILIA normalized expression MFI [1]: 1288.02 ± 20
IYK2 normalized expression MFI [1]: 292.92 ± 7.99
JAK1 normalized expression MFI [1]: 216.23 ± 6.41
JAK2 normalized expression MFI [1]: 109.39 ± 2.8
JAK3 normalized expression MFI [1]: 0.84 ± 0.12
LOR normalized expression MFI [1]: 43.2 ± 14.11
S100A7 normalized expression MFI [1]: 5.45 ± 1.02
S100A12 normalized expression MFI [1]: 1.21 ± 0.16
SERPINB3 normalized expression MFI [1]: 3.16 ± 0.43
SERPINB4 normalized expression MFI [1]: 4.23 ± 0.7
STAT1 normalized expression MFI [1]: 2861.37 ± 204.56
STAT3 normalized expression MFI [1]: 1466.73 ± 66.75
STAT4 normalized expression MFI [1]: 6 ± 0.46
STAT5A normalized expression MFI [1]: 23.69 ± 1.63
STAT5B normalized expression MFI [1]: 40.74 ± 2.3
STAT6 normalized expression MFI [1]: 1004.82 ± 23.76
TNF normalized expression MFI [1]: 28.04 ± 1.24
VEGFA normalized expression MFI [1]: 553.23 ± 11.38
AREG normalized expression MFI [2]: 701.57 ± 12.75
CCL17 normalized expression MFI [2]: 3.06 ± 0.34
CCL18 normalized expression MFI [2]: 2.2 ± 0.35
FLG normalized expression MFI [2]: 74.31 ± 8.77
IL6 normalized expression MFI [2]: 122.69 ± 4.36
IL8 normalized expression MFI [2]: 376.41 ± 13.16
IL17A normalized expression MFI [2]: 0.92 ± 0.14
IL22 normalized expression MFI [2]: 1.15 ± 0.18
IL23A normalized expression MFI [2]: 45.85 ± 2.3
IL31 normalized expression MFI [2]: 1.22 ± 0.29
ILIA normalized expression MFI [2]: 1258.76 ± 23.63
IYK2 normalized expression MFI [2]: 287.31 ± 11.08
JAK1 normalized expression MFI [2]: 210.42 ± 10.89
JAK2 normalized expression MFI [2]: 101 ± 2.26
JAK3 normalized expression MFI [2]: 0.83 ± 0.15
LOR normalized expression MFI [2]: 43.96 ± 15.87
S100A7 normalized expression MFI [2]: 7.08 ± 1.99
S100A12 normalized expression MFI [2]: 1.04 ± 0.15
SERPINB3 normalized expression MFI [2]: 2.3 ± 0.34
SERPINB4 normalized expression MFI [2]: 3.76 ± 0.66
STAT1 normalized expression MFI [2]: 2855.28 ± 166.89
STAT3 normalized expression MFI [2]: 1437.28 ± 60.69
STAT4 normalized expression MFI [2]: 6.22 ± 0.42
STAT5A normalized expression MFI [2]: 22.32 ± 2.16
STAT5B normalized expression MFI [2]: 42.9 ± 2.44
STAT6 normalized expression MFI [2]: 990.05 ± 21.06
TNF normalized expression MFI [2]: 28.66 ± 2.58
VEGFA normalized expression MFI [2]: 545.93 ± 9.71
AREG normalized expression MFI [3]: 731.24 ± 25.4
CCL17 normalized expression MFI [3]: 2.87 ± 0.33
CCL18 normalized expression MFI [3]: 2.01 ± 0.44
FLG normalized expression MFI [3]: 74.99 ± 8.16
IL6 normalized expression MFI [3]: 111.07 ± 4.74
IL8 normalized expression MFI [3]: 387.33 ± 19.5
IL17A normalized expression MFI [3]: 0.85 ± 0.15
IL22 normalized expression MFI [3]: 1 ± 0.17
IL23A normalized expression MFI [3]: 53.05 ± 3.22
IL31 normalized expression MFI [3]: 1.04 ± 0.31
ILIA normalized expression MFI [3]: 1162.35 ± 23.34
IYK2 normalized expression MFI [3]: 284.15 ± 9.62
JAK1 normalized expression MFI [3]: 205.03 ± 11.49
JAK2 normalized expression MFI [3]: 94.5 ± 2.65
JAK3 normalized expression MFI [3]: 0.92 ± 0.13
LOR normalized expression MFI [3]: 31.4 ± 10.44
S100A7 normalized expression MFI [3]: 3.83 ± 1.02
S100A12 normalized expression MFI [3]: 1 ± 0.17
SERPINB3 normalized expression MFI [3]: 2.2 ± 0.35
SERPINB4 normalized expression MFI [3]: 2.87 ± 0.48
STAT1 normalized expression MFI [3]: 2783.68 ± 179.19
STAT3 normalized expression MFI [3]: 1373.34 ± 55.51
STAT4 normalized expression MFI [3]: 6.21 ± 0.48
STAT5A normalized expression MFI [3]: 20.87 ± 2.1
STAT5B normalized expression MFI [3]: 40.75 ± 2.41
STAT6 normalized expression MFI [3]: 987.64 ± 15.75
TNF normalized expression MFI [3]: 29.5 ± 2.82
VEGFA normalized expression MFI [3]: 524.82 ± 13.65
AREG normalized expression MFI [4]: 730.41 ± 24.58
CCL17 normalized expression MFI [4]: 3.13 ± 0.48
CCL18 normalized expression MFI [4]: 1.68 ± 0.32
FLG normalized expression MFI [4]: 87.37 ± 10.99
IL6 normalized expression MFI [4]: 93.03 ± 3.25
IL8 normalized expression MFI [4]: 377.69 ± 20.45
IL17A normalized expression MFI [4]: 0.91 ± 0.17
IL22 normalized expression MFI [4]: 1.01 ± 0.19
IL23A normalized expression MFI [4]: 59.53 ± 3.83
IL31 normalized expression MFI [4]: 1.14 ± 0.32
ILIA normalized expression MFI [4]: 1126.94 ± 26.22
IYK2 normalized expression MFI [4]: 277.52 ± 8.67
JAK1 normalized expression MFI [4]: 195.97 ± 10.45
JAK2 normalized expression MFI [4]: 89.16 ± 3.43
JAK3 normalized expression MFI [4]: 0.79 ± 0.15
LOR normalized expression MFI [4]: 38.46 ± 14.1
S100A7 normalized expression MFI [4]: 5.73 ± 1.59
S100A12 normalized expression MFI [4]: 1.14 ± 0.16
SERPINB3 normalized expression MFI [4]: 2.21 ± 0.44
SERPINB4 normalized expression MFI [4]: 3.19 ± 0.7
STAT1 normalized expression MFI [4]: 2850.04 ± 177.51
STAT3 normalized expression MFI [4]: 1400.77 ± 58.44
STAT4 normalized expression MFI [4]: 6.27 ± 0.56
STAT5A normalized expression MFI [4]: 19.2 ± 1.94
STAT5B normalized expression MFI [4]: 41 ± 3.46
STAT6 normalized expression MFI [4]: 985.17 ± 29.31
TNF normalized expression MFI [4]: 28.31 ± 2.97
VEGFA normalized expression MFI [4]: 516.11 ± 14.7
AREG normalized expression MFI [5]: 260.61 ± 14.67
CCL17 normalized expression MFI [5]: 1.56 ± 0.38
CCL18 normalized expression MFI [5]: 1.49 ± 0.37
FLG normalized expression MFI [5]: 256.93 ± 36.45
IL6 normalized expression MFI [5]: 4.7 ± 0.32
IL8 normalized expression MFI [5]: 61.71 ± 4.86
IL17A normalized expression MFI [5]: 0.46 ± 0.1
IL22 normalized expression MFI [5]: 0.61 ± 0.13
IL23A normalized expression MFI [5]: 11.41 ± 1.43
IL31 normalized expression MFI [5]: 0.72 ± 0.18
ILIA normalized expression MFI [5]: 92.67 ± 5.54
IYK2 normalized expression MFI [5]: 217.28 ± 14.28
JAK1 normalized expression MFI [5]: 177.97 ± 14.91
JAK2 normalized expression MFI [5]: 25.21 ± 1.12
JAK3 normalized expression MFI [5]: 0.68 ± 0.17
LOR normalized expression MFI [5]: 23.78 ± 7.16
S100A7 normalized expression MFI [5]: 4.94 ± 1.59
S100A12 normalized expression MFI [5]: 0.8 ± 0.13
SERPINB3 normalized expression MFI [5]: 2.25 ± 0.49
SERPINB4 normalized expression MFI [5]: 3.39 ± 0.89
STAT1 normalized expression MFI [5]: 529.16 ± 21.86
STAT3 normalized expression MFI [5]: 732.19 ± 23.03
STAT4 normalized expression MFI [5]: 4.28 ± 0.61
STAT5A normalized expression MFI [5]: 1.75 ± 0.44
STAT5B normalized expression MFI [5]: 58.85 ± 6.21
STAT6 normalized expression MFI [5]: 740.11 ± 34.98
TNF normalized expression MFI [5]: 2.58 ± 0.57
VEGFA normalized expression MFI [5]: 211.13 ± 12.18

From patent publication US12498382B2, “Biomarkers for vitiligo” (INCYTE CORPORATION, priority 2019, dated 2025)
